These are literature values, as cited in patent US20070009938A1, “Minimalist bZIP derivatives that bind to noncanonical gene regulatory sequences” (priority 2005, published 2007).

In one data set the test system is AP-1 site. Particulars: previously shown, Lajmi et al. 2000.
The subject of the next data set is CRE (ATF/CREB) site. Particulars: previously shown, Lajmi et al. 2000.

For the substance “4A: alanine-rich derivative of wt bZIP with four Ala substitutions in the GCN4 basic region (SEQ ID NO:3) (ARAAAARARNTAAARRSRARKLQRMKQ; basic region 4A bZIP mutant peptide)”, the “binding to AP-1 site, DNase I footprinting” value (“binding to AP-1 site” for short) with AP-1 site was “bind”. The “binding to CRE (ATF/CREB) site, DNase I footprinting” value (“binding to CRE (ATF/CREB) site” for short) in the data set on CRE (ATF/CREB) site is listed as “bind”.

As to “18A: alanine-rich derivative of wt bZIP; 24 of the 27 basic-region residues are alanine (SEQ ID NO:5) (AAAAAAAAANAAAAAAARAAKAAAAAA; basic region 18A bZIP mutant peptide)”, in the data set with AP-1 site, the “binding to AP-1 site” value is “bind”. Further, in the data set with CRE (ATF/CREB) site, the “binding to CRE (ATF/CREB) site” value was “bind”.

In the case of “11A: alanine-rich derivative of wt bZIP with eleven Ala substitutions in the basic region, also mutated in the hinge (SEQ ID NO:4) (ARAAAARARNTAAARRSRAAKAAAAAA; basic region 11A bZIP mutant peptide)”, the “binding to AP-1 site” value with AP-1 site was “bind”. Also, the “binding to CRE (ATF/CREB) site” value in the data set with CRE (ATF/CREB) site is recorded as “bind”.
